Data taken from article PMC11361989, “A simple HPLC–MS/MS method for the determination of polymyxin B in human plasma and its application in the pharmacokinetic study in elderly patients infected with multidrug-resistant Gram-negative bacteria” (Frontiers in Pharmacology, 2024).

Legend:
[1] = Stability of PB1 and PB2 in human plasma under different storage conditions; conditions: human plasma, n = 3
Experimental: The stock solutions of the calibrators and quality control (QC) samples should be prepared separately in the same way. The PB stock solution for calibrators and QC samples was prepared in water (1% FA) at 400.48 μg/mL for PB1 and 40.84 μg/mL for PB2. Consequently, working solutions for construction of calibrators and QC were prepared by serially diluting the stock solution with a 1% aqueous solution of FA. The concentrations of the working solutions for calibrators were 10.01, 30.03, 50.05, 100.12, 150.18, and 200.24 μg/mL for PB1 and 1.02, 3.06, 5.10, 10.21, 15.31, and 20.42 μg/mL for PB2. The concentrations of working solutions for QCs were prepared at 20.02 μg/mL (LQC), 90.11 μg/mL (MQC), and 180.22 μg/mL (HQC) for PB1 and 2.04 μg/mL (LQC), 9.18 μg/mL (MQC), and 18.36 μg/mL (HQC) for PB2. The working solution of IS (10.00 μg/mL) was prepared using methanol. All the above solutions were stored at −70°C. The calibrators and QC samples were obtained by spiking 90 μL of blank plasma with 10 μL of working solution at the corresponding concentration. The standard curves were in the range of 1.00–20.02 μg/mL and 0.10–2.04 μg/mL for PB1 and PB2, respectively.
Typically, 100 μL of the plasma sample was mixed with 10 μL IS working solution, and then, 300 μL 0.1% FA in methanol was added to the sample for protein precipitation. The mixture was vortexed for 3 min and centrifuged in an Eppendorf 5415D microcentrifuge (Eppendorf, Hamburg, Germany) at 11,000 g rpm for 10 min. Subsequently, 200 μL of the supernatant was transferred into a clean polypropylene tube and diluted with 150 μL of 0.1% FA in water. The mixture solution was vortexed for 3 min and centrifuged at 11,000 rpm for 10 min using the same centrifuge. Finally, 200 μL of the supernatant was transferred into an injection bottle, and 10 μL was injected into the HPLC–MS/MS for analysis.
The stability of the working solutions of PB1 and PB2 was evaluated. The short-term stability and long-term stability of PB1 and PB2 in human plasma were evaluated under the following conditions: placed at room temperature or 4°C for 24 h, frozen and thawed three times, and stored at −70°C for 85 days. The stability evaluation was conducted for both LQC and HQC concentrations.

[2] = Stability of PB1 and PB2 in human whole blood at room temperature or 4°C; conditions: clinical TDM whole blood, plasma by HPLC-MS/MS
Experimental: Moreover, the stability of PB1 and PB2 in whole blood was determined using redundant TDM whole-blood samples. A clinical whole-blood sample was obtained and immediately divided into 10 aliquots and placed at room temperature (25°C) or 4°C. At the designated time point, one of the aliquots was removed and immediately centrifuged to obtain 100 μL of a plasma sample. Then, all plasma samples were stored at −70°C until further analysis. Two parallel samples were tested at each storage condition, and the results were expressed as the percentage ratios of PB1 or PB2 concentrations measured at different time points to the initial PB1 or PB2 concentration.

[3] = Stability of working solutions of PB1 and PB2; type: physicochemical; conditions: working solutions in 1% aqueous formic acid at LQC and HQC concentrations, stored at −70°C
Experimental: All the above solutions were stored at −70°C.

**Q.** Which results are given for polymyxin B1 [PB1]?
**A.** Stability in human plasma, RE ([1]; 4°C for 24 h, target PB1 2.00 / PB2 0.20 μg/mL (LQC)): +3.25%; Stability in human plasma, RE ([1]; 4°C for 24 h, target PB1 9.01 / PB2 0.92 μg/mL (MQC)): −7.38%; Stability in human plasma, RE ([1]; 4°C for 24 h, target PB1 18.02 / PB2 1.84 μg/mL (HQC)): −3.87%; Stability in human plasma, RE ([1]; room temp. for 24 h, target PB1 2.00 / PB2 0.20 μg/mL (LQC)): −11.99%; Stability in human plasma, RE ([1]; room temp. for 24 h, target PB1 9.01 / PB2 0.92 μg/mL (MQC)): +5.18%; Stability in human plasma, RE ([1]; room temp. for 24 h, target PB1 18.02 / PB2 1.84 μg/mL (HQC)): +6.19%; Stability in human plasma, RE ([1]; three freeze–thaw cycles, target PB1 2.00 / PB2 0.20 μg/mL (LQC)): −4.15%; Stability in human plasma, RE ([1]; three freeze–thaw cycles, target PB1 9.01 / PB2 0.92 μg/mL (MQC)): +3.09%; Stability in human plasma, RE ([1]; three freeze–thaw cycles, target PB1 18.02 / PB2 1.84 μg/mL (HQC)): +1.01%; Stability in human plasma, RE ([1]; −70°C for 85 days, target PB1 2.00 / PB2 0.20 μg/mL (LQC)): −2.50%; Stability in human plasma, RE ([1]; −70°C for 85 days, target PB1 9.01 / PB2 0.92 μg/mL (MQC)): +0.10%; Stability in human plasma, RE ([1]; −70°C for 85 days, target PB1 18.02 / PB2 1.84 μg/mL (HQC)): +1.95%; Concentration after storage in human blood ([2]; 4°C, 0 h (initial), parallel sample 1): 4690 ng/mL; Concentration after storage in human blood ([2]; 4°C, 0 h (initial), parallel sample 2): 4720 ng/mL; Concentration after storage in human blood ([2]; 4°C, 0.5 h, parallel sample 1): 4290 ng/mL; Concentration after storage in human blood ([2]; 4°C, 0.5 h, parallel sample 2): 4120 ng/mL; Concentration after storage in human blood ([2]; 4°C, 1 h, parallel sample 1): 4420 ng/mL; Concentration after storage in human blood ([2]; 4°C, 1 h, parallel sample 2): 4350 ng/mL; Concentration after storage in human blood ([2]; 4°C, 2 h, parallel sample 1): 5100 ng/mL; Concentration after storage in human blood ([2]; 4°C, 2 h, parallel sample 2): 4890 ng/mL; Concentration after storage in human blood ([2]; 4°C, 3 h, parallel sample 1): 5250 ng/mL; Concentration after storage in human blood ([2]; 4°C, 3 h, parallel sample 2): 5320 ng/mL; Concentration after storage in human blood ([2]; 4°C, 4 h, parallel sample 1): 5130 ng/mL; Concentration after storage in human blood ([2]; 4°C, 4 h, parallel sample 2): 4950 ng/mL; Concentration after storage in human blood ([2]; 4°C, 5 h, parallel sample 1): 4820 ng/mL; Concentration after storage in human blood ([2]; 4°C, 5 h, parallel sample 2): 4820 ng/mL; Concentration after storage in human blood ([2]; 4°C, 8 h, parallel sample 1): 4460 ng/mL; Concentration after storage in human blood ([2]; 4°C, 8 h, parallel sample 2): 4850 ng/mL; Concentration after storage in human blood ([2]; 4°C, 12 h, parallel sample 1): 4560 ng/mL; Concentration after storage in human blood ([2]; 4°C, 12 h, parallel sample 2): 4680 ng/mL; Concentration after storage in human blood ([2]; 4°C, 24 h, parallel sample 1): 4690 ng/mL; Concentration after storage in human blood ([2]; 4°C, 24 h, parallel sample 2): 5280 ng/mL; Concentration after storage in human blood ([2]; room temperature (25°C), 0 h (initial), parallel sample 1): 6890 ng/mL; Concentration after storage in human blood ([2]; room temperature (25°C), 0 h (initial), parallel sample 2): 6660 ng/mL; Concentration after storage in human blood ([2]; room temperature (25°C), 0.5 h, parallel sample 1): 6830 ng/mL; Concentration after storage in human blood ([2]; room temperature (25°C), 0.5 h, parallel sample 2): 6630 ng/mL; Concentration after storage in human blood ([2]; room temperature (25°C), 1 h, parallel sample 1): 6130 ng/mL; Concentration after storage in human blood ([2]; room temperature (25°C), 1 h, parallel sample 2): 6130 ng/mL; Concentration after storage in human blood ([2]; room temperature (25°C), 2 h, parallel sample 1): 6700 ng/mL; Concentration after storage in human blood ([2]; room temperature (25°C), 2 h, parallel sample 2): 6150 ng/mL; Concentration after storage in human blood ([2]; room temperature (25°C), 3 h, parallel sample 1): 7160 ng/mL; Concentration after storage in human blood ([2]; room temperature (25°C), 3 h, parallel sample 2): 6780 ng/mL; Concentration after storage in human blood ([2]; room temperature (25°C), 4 h, parallel sample 1): 6420 ng/mL; Concentration after storage in human blood ([2]; room temperature (25°C), 4 h, parallel sample 2): 6420 ng/mL; Concentration after storage in human blood ([2]; room temperature (25°C), 5 h, parallel sample 1): 6890 ng/mL; Concentration after storage in human blood ([2]; room temperature (25°C), 5 h, parallel sample 2): 6710 ng/mL; Concentration after storage in human blood ([2]; room temperature (25°C), 8 h, parallel sample 1): 6970 ng/mL; Concentration after storage in human blood ([2]; room temperature (25°C), 8 h, parallel sample 2): 6650 ng/mL; Concentration after storage in human blood ([2]; room temperature (25°C), 12 h, parallel sample 1): 7950 ng/mL; Concentration after storage in human blood ([2]; room temperature (25°C), 12 h, parallel sample 2): 8190 ng/mL; Concentration after storage in human blood ([2]; room temperature (25°C), 24 h, parallel sample 1): 7050 ng/mL; Concentration after storage in human blood ([2]; room temperature (25°C), 24 h, parallel sample 2): 6720 ng/mL; Stability of working solutions [3]: remained stable after storage at −70 °C for up to 7 days but not beyond 10 days
